How the values were obtained:
Test in all cases: relative viability (nuclei count vs DMSO), 5 days (fraction); higher = more cells survive
[1] = compound: C1=CC2=C(C=C(C(=C2N=C1)O)N=NC3=CC4=C(C=C3)C=C(C=C4)S(=O)(=O)O)S(=O)(=O)O + NC(=O)Nc1cc(-c2cccc(F)c2)sc1C(=O)N[C@H]1CCCNC1 [AZD7762] (partner 0.2 µM)
In short: (§1)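 Lung cancer cell lines in 1536-well plates were dosed by pin tool the day after seeding, either with one drug alone or with a fixed anchor-drug dose plus five library-drug doses (not always all listed) in √10 steps. After 5 days, cells were fixed and their nuclei stained in one step (final 0.05% Triton X-100, 1% formaldehyde, 1 ug/ml Hoechst), then counted on 4× images. Relative viability is the nuclei count in treated wells divided by that in vehicle wells. Values are medians of duplicate plates.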

[2] = compound: C1=CC2=C(C=C(C(=C2N=C1)O)N=NC3=CC4=C(C=C3)C=C(C=C4)S(=O)(=O)O)S(=O)(=O)O + CCNC(=O)c1noc(-c2cc(C(C)C)c(O)cc2O)c1-c1ccc(CN2CCOCC2)cc1 [Luminespib] (partner 0.01 µM)
In short: as §1

AT-7519 + Palbociclib = compound: O=C(NC1CCNCC1)c1n[nH]cc1NC(=O)c1c(Cl)cccc1Cl [AT-7519] + CC(=O)c1c(C)c2cnc(Nc3ccc(N4CCNCC4)cn3)nc2n(C2CCCC2)c1=O [Palbociclib] (partner 0.5 µM)
In short: as §1

[3] = compound: C1=CC2=C(C=C(C(=C2N=C1)O)N=NC3=CC4=C(C=C3)C=C(C=C4)S(=O)(=O)O)S(=O)(=O)O + CC(=O)c1c(C)c2cnc(Nc3ccc(N4CCNCC4)cn3)nc2n(C2CCCC2)c1=O [Palbociclib] (partner 0.5 µM)
In short: as §1

Cell Line	relative viability ([1]; first compound 0.08 µM)	relative viability ([1]; first compound 0.253 µM)	relative viability ([1]; first compound 0.8 µM)	relative viability ([1]; first compound 2.53 µM)	relative viability ([1]; first compound 8 µM)	relative viability ([2]; first compound 0.08 µM)	relative viability ([2]; first compound 0.253 µM)	relative viability ([2]; first compound 0.8 µM)	relative viability ([2]; first compound 2.53 µM)	relative viability ([2]; first compound 8 µM)	relative viability (AT-7519 + Palbociclib; first compound 0.01 µM)	relative viability (AT-7519 + Palbociclib; first compound 0.03162 µM)	relative viability (AT-7519 + Palbociclib; first compound 0.3162 µM)	relative viability (AT-7519 + Palbociclib; first compound 1 µM)	relative viability ([3]; first compound 0.08 µM)	relative viability ([3]; first compound 0.253 µM)	relative viability ([3]; first compound 0.8 µM)	relative viability ([3]; first compound 2.53 µM)	relative viability ([3]; first compound 8 µM)
NCI-H322M	0.576	0.625	0.522	0.598	0.71	1.04	0.828	0.859	0.847	1.12	0.501	0.486	0.419	0.473	0.473	0.462	0.501	0.454	0.514
NCI-H2342	0.603	0.541	0.463	0.462	0.582	0.67	0.714	0.625	0.767	0.73	0.53	0.491	0.497	0.533	0.576	0.538	0.532	0.6	0.542
NCI-H647	0.473	0.321	0.513	0.471	0.345	0.138	0.241	0.215	0.276	0.135	0.442	0.369	0.413	0.19	0.413	0.404	0.386	0.387	0.37
NCI-H2170	1.02	1.04	0.89	1.01	0.914	0.83	0.63	0.672	0.731	0.895	0.418	0.427	0.345	0.423	0.469	0.401	0.393	0.438	0.402
NCI-H2085	0.874	1.03	0.902	0.971	0.969	0.409	0.419	0.426	0.367	0.44	0.454	0.503	0.515	0.608	0.492	0.481	0.451	0.486	0.463
NCI-H727	0.689	0.639	0.646	0.639	0.658	0.478	0.45	0.327	0.346	0.359	0.621	0.698	0.658	0.427	0.674	0.652	0.659	0.634	0.694
NCI-H441	1.18	1.08	0.946	1.13	1.13	0.454	0.323	0.428	0.363	0.278	0.202	0.195	0.141	0.163	0.22	0.206	0.21	0.209	0.216
LOU-NH91	0.779	0.75	0.737	0.794	0.676	0.418	0.354	0.327	0.373	0.341	0.491	0.552	0.524	0.461	0.573	0.524	0.503	0.559	0.558
NCI-H3122	0.967	0.976	0.975	1.03	0.962	0.0606	0.111	0.0925	0.0947	0.102	0.212	0.506	0.221	0.145	0.215	0.185	0.176	0.2	0.216
NCI-H460	0.612	0.629	0.605	0.637	0.53	0.0298	0.032	0.13	0.022	0.0231	0.137	0.142	0.0995	0.019	0.174	0.081	0.183	0.279	0.229
NCI-H650	0.872	0.996	0.967	0.922	0.998	0.876	0.874	0.691	0.889	0.76	0.329	0.335	0.296	0.452	0.35	0.357	0.335	0.317	0.335
NCI-H1793	0.411	0.407	0.481	0.497	0.455	0.22	0.189	0.184	0.264	0.16	0.309	0.299	0.305	0.285	0.352	0.327	0.283	0.3	0.271
NCI-H1734	0.633	0.558	0.566	0.527	0.566	0.166	0.182	0.236	0.182	0.193	0.288	0.319	0.353	0.167	0.367	0.323	0.344	0.375	0.329
LXF-289	1.23	1.06	1.07	1.11	1.15	0.788	0.645	0.73	0.681	0.642	0.597	0.656	0.527	0.577	0.672	0.551	0.559	0.608	0.553
H3255	0.893	0.881	0.89	0.939	0.899	0.838	0.876	0.864	0.855	0.78	0.376	0.309	0.328	0.308	0.303	0.313	0.334	0.344	0.313
201T	0.691	0.652	0.56	0.632	0.634	1.09	1.09	1.04	1.09	1.04	0.339	0.34	0.32	0.363	0.385	0.366	0.366	0.366	0.35

From the supplement of paper PMC10307832
